{"source": "patent US20240382555A1", "about": "“PEPTIDES WITH ANTI-ANGIOGENIC ACTIVITY” (priority 2021, published 2024)", "format_in_all_cases": "cell-based, human", "key": {"HUVECs [1]": {"test_system": "HUVECs", "assay": "Tube formation assay, HUVECs on growth factor-reduced Matrigel with pro-angiogenic stimuli", "conditions": "for anti-angiogenic activity (number of tubes/well): HUVECs, 50 ng/ml VEGF-A or FGF-2, 10 ng/ml peptide, FIG. 5", "method": "Tube formation assays were performed as described in Caccuri F. et al., “Evolution toward beta common chain receptor usage links the matrix proteins of HIV-1 and its ancestors to human erythropoietin,” Proc Natl Acad Sci USA. 2021; 11810.\nBriefly, 150 μl of Cultrex Basement Membrane Extract (Matrigel; 10 mg/ml) (Trevigen Inc., Gaithersburg, MD, USA) or reduced growth factor Matrigel (Trevigen Inc.) were transferred to prechilled 48-well culture plates. The plates were then incubated for 1 h at 37° C.\nCells were resuspended in EGM growth medium containing 10% FBS and seeded (5×10^4 per well). […] Capillary structures were photographed with a Hitachi KP-D50 camera and then quantified as the number of tubes/well.\nIn some experiments, HUVECs were stimulated with optimal concentrations of human pro-angiogenic molecules such as vascular endothelial growth factor-A (VEGF-A), fibroblast growth factor-2 (FGF-2), or interleukin-8 (IL-8). Experiments were conducted using nucleofected cells or cells stimulated with U94-derived peptides.\nTo evaluate the ability of the peptide of sequence SEQ ID No. 2 to influence the ability of HUVECs to respond to stimulation exerted by different angiogenic mediators, HUVECs were seeded on growth-reduced Matrigel in the absence (NT) or presence of optimal concentrations of different pro-angiogenic stimuli (VEGF-A, FGF-2, or IL-8) alone or in the presence of a control peptide (CTRL) or of the peptide of sequence SEQ ID No. 2 (KDKY).\nHUVECs were seeded on reduced growth factor Matrigel-coated wells wells in complete medium containing 50 ng/ml of VEGF-A or FGF-2 alone or in combination with 10 ng/ml of the control peptide (CTRL), or KDKY, AKDY, KAKY, KDAY or KDKA.\nHUVECs were seeded on reduced growth factor Matrigel-coated wells in complete medium containing 50 ng/ml of VEGF-A or FGF-2 alone or in combination with 10 ng/ml of CTRL, KDKY, DKY or DRY."}, "[2]": {"test_system": "SARS-CoV-2-infected HL-mECs", "conditions": "growth factor-reduced Matrigel; MOI 1; FIG. 3"}, "HUVECs [3]": {"test_system": "HUVECs", "assay": "Spheroids assay, HUVEC spheroids in type I collagen gel with pro-angiogenic stimuli", "conditions": "HUVEC spheroids stimulated with VEGF-A, FGF-2 or IL-8; FIG. 2", "method": "The assay was performed using nucleofected cells or cells stimulated with U94-derived peptides. Spheroids were generated by mixing HUVECs (1.5×10^5 cells/ml) with 5 mg/ml methylcellulose (Sigma-Aldrich) in EGM growth medium containing 10% FBS, bringing the final volume to 10 ml.\nThe cells (100 μl/well) were then added to 96-well plates (Greiner Bio-one, Kremsmünster, Austria) and incubated at 37° C., in a 5% CO2 atmosphere for 24 hours.\nSeparately, the collagen I gel solution (Rat Tail, Corning) was maintained on ice and neutralized by adding NaOH 0.1 M and PBS 10× to a final pH of 7.4.\nThen, 24-well plates were coated with neutralized collagen (200 μl/well) and incubated in a humidified 5% CO2 incubator for 1 hour at 37° C.\nThe spheroids from the 96-well plates were collected in Eppendorf tubes and centrifuged at 4000×rpm for 5 to 10 seconds. When a clear pellet was distinguished, the supernatant was removed and the pellet was kept in a volume of about 100 μl of collagen I-neutralized solution.\nEach collagen-spheroid mixture was rapidly added to pre-coated 24-well plates at 100 μl/well and incubated for 1 h. […]\nSprouting occurred from the spheroid core, which was photographed with a Hitachi KP-D50 camera, and the sprout number was counted with the spheroids similar sizes from three different wells of the plate. […]"}, "[4]": {"test_system": "SARS-CoV-2-infected HL-mECs", "conditions": "SARS-CoV-2-infected spheroids; FIG. 4"}}, "data": [{"substance": "DRY", "values": [{"measurement": "anti-angiogenic activity (number of tubes/well)", "setting": "HUVECs [1]", "result": "able to block angiogenic activity"}]}, {"substance": "DKY", "values": [{"measurement": "anti-angiogenic activity (number of tubes/well)", "setting": "HUVECs [1]", "result": "able to block angiogenic activity"}]}, {"substance": "ADKY [tetra-peptide, first amino acid of KDKY replaced by alanine]", "values": [{"measurement": "anti-angiogenic activity (number of tubes/well)", "setting": "HUVECs [1]", "result": "maintained potent anti-angiogenic activity"}]}, {"substance": "KDKY [SEQ ID No. 2]", "values": [{"measurement": "angiogenic activity (number of tubes/well) of SARS-CoV-2-infected HL-mECs", "setting": "[2]", "result": "did not perform any angiogenic activity"}, {"measurement": "angiogenic activity (tube formation, number of tubes/well)", "setting": "HUVECs [1]; HUVECs stimulated with VEGF-A, FGF-2 or IL-8, 8 hours after seeding on Matrigel, FIG. 1", "result": "significantly impaired"}, {"measurement": "anti-angiogenic activity (number of tubes/well)", "setting": "HUVECs [1]", "result": "able to block angiogenic activity"}, {"measurement": "sprouting response (number of sprouts per spheroid)", "setting": "HUVECs [3]", "result": "drastic reduction in the sprouting response"}, {"measurement": "SARS-CoV-2-induced angiogenesis (number of sprouts per spheroid)", "setting": "[4]", "result": "potently inhibited"}]}]}
